# According to article PMC4683533, “Discovery of novel INK4C small-molecule inhibitors to promote human and murine hematopoietic stem cell ex vivo expansion” (Scientific Reports, 2015):
# Assays:
# [1] = system: human cord blood CD34+ cells (CD34+CD49f+ cells); assay: human cord blood CD34+ cell ex vivo culture and screen; type: cell-based
# Protocol: Based on our study of murine HSCs, we further tested whether these p18SMIs could expand human cord blood CD34^+ cells in ex vivo culture. […] We cultured human cord blood CD34^+ cells for 7 days in HSCs expansion media in the presence of 200 nM of p18SMIs, and then analyzed the percentage and absolute number of CD34^+CD49f^+ cells by flow cytometry. We screened 40 p18SMIs, of which14 compounds could increase the number of CD34^+CD49f^+ cells compared with the control group (Fig. S6). […] Then we conducted a concentration gradient assay on top three p18SMIs with ED50 less than 10 nM (compounds 22, 40 and 41). […] Only in specific doses could they show their expansion effect on human HSCs (Fig. 4B).
# Human cord blood samples were collected from consenting donors according to ethically approved procedures at Tianjin Central Hospital of Gynecology Obstetrics (Tianjin, China), under a protocol approved by the Ethical Committee on Medical Research at the Institute of Hematology. Human CD34^+ cord blood cells were isolated using human CD34 MicroBead Kit (MiltenyiBiotec) according to the manufacturer’s protocol after settling red cells with HES and red cells lysis with ACK Lysis Buffer.
# Human CD34^+ cells were cultured in expansion medium consisting of StemSpan SFEM (StemCell Technologies) supplemented with 100 ng/mL human stem cell factor (SCF, PeproTech), 50 ng/mL human thrombopoietin (TPO, PeproTech), 100 ng/mL human FMS-like trysine kinase 3 ligand (Flt3L, PeproTech). Human CD34^+ cells were resuspended in expansion medium (5 × 10^4 cells/mL) before being aliquoted in 96-well plates (Costar, Corning Incorporated). Compounds, all with a final concentration of 200 nM, were dissolved in DMSO and added immediately in cell suspension after plating. The final concentration of DMSO in the control group was the same as in the compounds-treated group. Cells were cultured at 37 °C in 5% CO2. Based on the results of primary screening upon human cells and the results of ED50, we chose three compounds for further experiments. The expansion medium was changed to StemSpan SFEM (StemCell Technologies) supplemented with 100 ng/mL human stem cell factor (SCF, PeproTech), 100 ng/mL human thrombopoietin (TPO, PeproTech), 100 ng/mL human FMS-like trysine kinase 3 ligand (Flt3L, PeproTech) and 100 ng/mL human interleukin-6 (IL-6, PeproTech) for better expansion effect. The incubation condition was consistent with before.
# Phenotypes analysis of cultured cells was performed on a BD FACS Array (Becton Dickinson Biosciences) using a combination of the following antibodies: APC anti-CD34 (BD Biosciences), PE anti-CD49f (BD Biosciences). Stained cells were washed once with PBS and then measured and analyzed on an FACS analyzer (FACSArray, BD Biosciences).
# [2] = system: c-Kit-enriched BM cells (progenitor cells, HSPCs, LT-HSCs); assay: CFSE cell division assay; type: cell-based, mouse; conditions: LT-HSC
# Text: We have previously shown that deficiency of p18 may enhance HSCs expansion by inducing primitive phenotypes after each cell division in vivo[19]. To obtain direct evidence that compound 40 promotes primitive phenotypes after each cell division, we measured cell divisions in distinct immunophenotypically-defined populations of cells treated with p18SMI compound. 5- (and 6-) carboxy-fluorescein diacetatesuccinimidylester (CFSE) dye was used to label the c-Kit-enriched BM cells before culture. Surface markers for progenitor cells, HSPCs and LT-HSCs were used to co-stain the BM cells that were harvested 5 days after treatment with the p18SMI compound. The number of initial cell divisions was measured based on the intensity of CFSE in each cell population. Consistent with previous phenotype results, little effect on the progenitor cells and HSPCs populations was observed (Fig. 5A).
# Prior to culture, cKit-enriched BM cells (1 × 10^6/mL) were labeled with 5- (and 6-) carboxy-fluorescein diacetatesuccinimidylester (CFSE) dye (3 μM, Molecular Probes) in PBS supplemented with 0.1% bovine serum albumin. Labeling was performed in the dark at 37 °C for 10 min. […] During cell division, CFSE is distributed equally between daughter cells so that the generation of cells could be reflected by the content of CFSE and measured by the intensity of fluorescence. […]
# [3] = system: LT-HSCs; assay: dependence of HSC expansion on CDK4/6 versus CDK2 (co-treatment with CDK inhibitors); type: cell-based, mouse
# Text: To assess a direct role for p18-CDK6 signaling in HSCs expansion induced by compound 40, we used the CDK4/6-specific inhibitor PD0332991 to block CDK6 activation. As a control, we blocked CDK2 with SNS032, a CDK2 selective inhibitor. […] So here we wanted to explore whether p18SMI compound’s HSCs expansion effect was abrogated by CDK4/6 inhibitor or CDK2 inhibitor.
smiles,measurement,setting,value
"O=C([O-])c1ccc(S(=O)(=O)NC2CCCCC2)cc1.[Na+] [Compound 40, sodium 4-(N-cyclohexylsulfamoyl)benzoate]",increase in the absolute number of CD34+CD49f+ cells,"[1]; 200 nM, 7 days in HSCs expansion media, versus control group",> 30%
same,expansion of human HSCs in concentration gradient assay,"[1]; dose response, Fig. 4B",concentration related
same,% Divided,[2],65.2%
same,number of LT-HSCs,[3]; in the PD0332991-treated group (CDK4/6-specific inhibitor),failed to increase
same,number of LT-HSCs,[3]; in the SNS032-treated group (CDK2 selective inhibitor),still enhanced
